This is an account of results in US5035877A, “Non-ionic contrast media from ionic contrast media” (Cook Imaging Corporation, priority 1990, dated 1991).

The test system of one series is Rats (Lewis). The series can be described thus: Estimated i.v. LD50, rats (systemic toxicity). The series is classed as in vivo. The conditions noted are these: 300 mg I/ml, 37° C., injection rate 5 ml/min. Here is the method: (§1) Compounds VIII and XVI were tested from stability, solubility, osmolality, viscosity and systemic toxicity.
(§2) *All at 300 mg I/ml concentration and 37° C. Injection rates 1
(§3) ml/min in mice and 5 ml/min in rats.
(§4) °Ref. Salvesen, S. in Acta Radiol. Suppl. 362, p. 73, 1980

The test system of the next series is Mice (CD-1). The experiment in a line: Estimated i.v. LD50, mice (systemic toxicity). The series is classed as in vivo. As to conditions: 300 mg I/ml, 37° C., injection rate 1 ml/min. As to the method:
as §1, §2, §3, §4

Another series is described as follows: Osmolality. The series is classed as physicochemical. As to conditions: for osmolality (in words): compared with existing compounds. As to the method: as §1, §2
A short description of another series: Stability. In kind it is physicochemical. The conditions noted are these: compared with existing compounds. Here is the method: as §1
The nature of a further series: Solubility. In kind it is physicochemical. As to conditions: compared with existing compounds. Here is the method:
as §1

A short description of another series: Viscosity. In kind it is physicochemical. As to conditions: for viscosity (in words): compared with existing compounds. Here is the method: as §1, §2
Series [1] is described as follows: Systemic toxicity (conventional tests, in words). In kind it is in vivo. The conditions noted are these: compared with existing compounds. As to the method: as §1
The conditions of series [2]: must be dispensed lyophilized and reconstituted prior to use; cited from earlier work.

For `COCC(=O)Nc1c(I)c(C(=O)NCC(O)CO)c(I)c(C(=O)N(C)CC(O)CO)c1I` (centres unmarked) [Iopromide], the “Estimated i.v. LD50” value is given as 10-11.5 gI/kg in the series with Rats (Lewis) and 11.5-13.0 gI/kg in the series with Mice (CD-1).
For `CC(=O)N(CC(O)CO)c1c(I)c(C(=O)NCC(O)CO)c(I)c(C(=O)NCC(O)CO)c1I` (centres unmarked) [Iohexol], the “Estimated i.v. LD50” value in the series with Rats (Lewis) is listed as 13.5-15 gI/kg; in the series on Mice (CD-1) it was 16-17 gI/kg.
As for `CC(=O)N(CC(O)CO)c1c(I)c(C(=O)NCCO)c(I)c(C(=O)NCC(O)CO)c1I` (centres unmarked) [VIII, 5-(N-2,3-dihydroxypropylacetamido)-2,4,6-triiodo-N-(2,3-dihydroxypropyl)-N'-(2-hydroxyethyl)-isophthalamide], the Osmolality in “Osmolality” (300 mg I/ml, 37° C.) was determined as 560 mOsm/kg. In the series “Osmolality”, the “osmolality (in words)” value is on record as “substantially reduced osmolality”. Also, the “Estimated i.v. LD50” value in the series on Rats (Lewis) is 14-16.5 gI/kg; in the series on Mice (CD-1), 16-17 gI/kg. Also, the “stability (in words)” value in the series “Stability” was “comparable properties in the other categories”. For the same molecule, the “solubility (in words)” value in the series “Solubility” was “comparable properties in the other categories”. The molecule also came in with a Viscosity in the series “Viscosity” (300 mg I/ml, 37° C.) of 5.3 cps. Also, the “viscosity (in words)” value in the series “Viscosity” is given as “comparable properties in the other categories”. Besides, the “systemic toxicity (in words)” value in series [1] is recorded as “comparable properties in the other categories”.
Take `C[C@H](O)C(=O)Nc1c(I)c(C(=O)NC(CO)CO)c(I)c(C(=O)NC(CO)CO)c1I` [Iopamidol]: the “Estimated i.v. LD50” value is listed as 12.2-13 gI/kg with Rats (Lewis) and 17-18 gI/kg in the series on Mice (CD-1).
As to `CNC(=O)c1c(I)c(C(=O)N[C@@H](CO)[C@H](O)CO)c(I)c(N(CC(O)CO)C(C)=O)c1I` (relative stereo) [XVI, 5-(N-2,3-Dihydroxypropylacetamido)-2,4,6-triiodo-N-methyl-N'-(1,3,4-trihydroxy-erythro-but-2-yl) isophthalamide], in “Osmolality”, the “osmolality (in words)” value is on record as “substantially reduced osmolality”. Moreover, the “Estimated i.v. LD50” value with Rats (Lewis) is 13.5-14 gI/kg; in the series on Mice (CD-1), 12-13 gI/kg. Moreover, the “stability (in words)” value in the series “Stability” is “comparable properties in the other categories”. For the same molecule, the “solubility (in words)” value in “Solubility” is on record as “comparable properties in the other categories”. The “viscosity (in words)” value in “Viscosity” is “comparable properties in the other categories”. Further, the “systemic toxicity (in words)” value in series [1] is recorded as “comparable properties in the other categories”.
As to `CC(=O)Nc1c(I)c(C(=O)N[C@H]2C(O)O[C@H](CO)[C@@H](O)[C@@H]2O)c(I)c(N(C)C(C)=O)c1I` (some centres unmarked) [Metrizamide], the “hydrolytic stability (in words)” value in series [2] is “hydrolytic instability”.
